From patent US20240327384A1, “SALTS AND SOLID STATE FORMS OF A KIF18A INHIBITOR COMPOUND” (Amgen Inc., priority 2021, published 2024)
Values after ≈ are worked out from the molar mass of the structure shown. Read-outs that look alike come from different tables or passages of the source. Marks after values point to notes of the source that are not given here.

What was measured:
[1] = Intrinsic dissolution rate (IDR) test; type: physicochemical
Dog cross-over PK study = type: in vivo
Protocol: A total of 3 male dogs were initially assigned to study. All animals were fasted for at least eight hours prior to dosing and through the first four hours of blood sample collection (food was returned within 30 minutes following the collection of the last blood sample at the 4 hour collection interval, if applicable).
Each animal receiver an oral gavage dose (PO) of the appropriate test article solution containing Compound A as outlined in the following study design table. Oral gavage dosing solutions were continuously stirred throughout dosing. The gavage tubes were rinsed with approximately 10 mL of tap water following dosing (prior to removal of the gavage tube). There was a minimum of 10-day washout period between doses for each phase.

[2] = Dynamic vapor sorption (moisture sorption, hygroscopicity); type: physicochemical; conditions: for DVS weight gain: by 95% RH
Protocol: Moisture sorption data was collected using a VTI SGA 100 symmetrical vapor sorption analyzer. A sample size of approximately 5 mg to 10 mg was used in a platinum pan. Hygroscopicity was evaluated from 5% RH to 95% RH in increments of 5% RH. Data for adsorption and desorption cycles were collected. […] Dynamic Vapor Sorption (DVS): Moisture sorption data was collected using a Surface Measurement Systems […] instrument. Equilibrium criteria were set at ±0.001% weight change in 10 minutes with a maximum equilibrium time of 360 minutes.

[3] = Solubility and powder dissolution in FaSSGF, FaSSIF, FeSSIF, water (Example 44); type: physicochemical; conditions: for Sol (pH), Water (first value pair after FeSSIF): pH 1.14 (HCl Form 1), pH 1.08 (Variable Hydrate Form 2); for Sol (pH), Water (first value pair after FeSSIF) / Sol (pH), Water (second value pair after FeSSIF): head of medium unclear; for Sol (pH), Water (second value pair after FeSSIF): pH 1.58 (HCl Form 1), pH 1.64 (Variable Hydrate Form 2)
Protocol: Solubilities of various forms of the Compound A and the Compound A-HCl Form 1 were measured in Fasted State Simulated Gastric Fluid (FaSSGF), Fasted State Simulated Intestinal Fluid (FaSSIF), fed state simulated intestinal fluid […], and water.

KIF18A = biological target: T1, KIF18A (Homo sapiens, UniProt Q8NI77); test: KIF18A ATPase inhibition; type: biochemical
T1 sequence (Q8NI77 1-898): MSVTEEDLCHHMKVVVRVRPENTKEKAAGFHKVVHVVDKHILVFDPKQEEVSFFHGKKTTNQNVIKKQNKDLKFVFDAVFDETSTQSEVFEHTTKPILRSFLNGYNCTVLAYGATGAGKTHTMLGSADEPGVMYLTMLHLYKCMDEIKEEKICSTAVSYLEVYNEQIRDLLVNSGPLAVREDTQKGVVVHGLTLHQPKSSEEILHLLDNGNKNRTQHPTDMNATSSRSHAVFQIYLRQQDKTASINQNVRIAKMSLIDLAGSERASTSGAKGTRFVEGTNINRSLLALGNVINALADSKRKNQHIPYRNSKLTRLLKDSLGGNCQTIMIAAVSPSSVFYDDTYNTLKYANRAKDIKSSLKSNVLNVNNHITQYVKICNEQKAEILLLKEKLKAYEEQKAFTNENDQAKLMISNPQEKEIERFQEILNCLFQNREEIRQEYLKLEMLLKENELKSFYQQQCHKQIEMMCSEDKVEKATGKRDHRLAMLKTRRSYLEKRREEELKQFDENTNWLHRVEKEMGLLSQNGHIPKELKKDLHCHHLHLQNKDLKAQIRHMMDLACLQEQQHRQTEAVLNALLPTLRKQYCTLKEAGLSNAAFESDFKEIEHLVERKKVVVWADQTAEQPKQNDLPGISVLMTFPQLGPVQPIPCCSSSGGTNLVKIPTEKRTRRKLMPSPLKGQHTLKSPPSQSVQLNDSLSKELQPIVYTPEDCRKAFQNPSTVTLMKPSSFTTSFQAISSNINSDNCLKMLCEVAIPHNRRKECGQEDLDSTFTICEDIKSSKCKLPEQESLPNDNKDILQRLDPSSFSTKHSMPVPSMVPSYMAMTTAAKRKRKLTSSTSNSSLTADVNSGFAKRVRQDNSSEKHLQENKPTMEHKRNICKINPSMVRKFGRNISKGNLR

pKa of ionizable groups = type: physicochemical
Excerpt: From high-throughput and manual polymorph screening, the present inventors generated various salts, hydrates, solvates, co-crystals of compound A; and a solid form of the Compound A, including crystalline anhydrous forms, salts, hydrates, solvates, and co-crystals thereof. […] Based on the solid-state properties of the free base forms of Compound A, and their inclinations to form solvates, the present inventors generated various salts, hydrates, solvates, and co-crystals of compound A that may be suitable for drug substance scale up and crystallization for pharmaceutical development.

[4] = Solubility in crystallization solvent 80/20 acetone/water; type: physicochemical; conditions: organic solvent or mixture; 80/20 (v/v) acetone/water, crystallization and slurry aging solvent
Protocol: The process was unseeded and crystal growth occurs during the addition of hydrochloric acid to the Compound A solution. The final slurry was aged at ambient temperature for 10 h, then cooled to 10° C. prior to wet milling. Isolation of the milled material occurred at 10° C. followed by washing of the filter cake with 8 volumes of acetone. The material was dried at 40° C. under vacuum.

[5] = Solubility and powder dissolution of salts in FaSSIF (Example 46); type: physicochemical
Excerpt: All three salts can convert to the free base, but maintain supersaturation in FaSSIF for some time, which indicated a potential good absorption in vivo if used in a pharmaceutical dosage form.

[6] = Polymorph/salt screening: solid form stability, conversion and solubility; type: physicochemical
[7] = male dogs, fasted, PO 10 mg/kg, cross-over, listed as Amorphous Cmp A, 10 mg/kg
[8] = male dogs, fasted, PO 10 mg/kg, cross-over, listed as Cmp A-Anhydrous Form 3, 10 mg/kg
[9] = male, dog, plasma, po, 10 mg/kg, male dogs, fasted, cross-over, read-out: Tmax
[10] = pH 1.6, solubility from powder dissolution measurements
[11] = pH 6.5, solubility from powder dissolution measurements
[12] = pH 5.0, solubility from powder dissolution measurements
[13] = male, dog, plasma, po, 10 mg/kg, male dogs, fasted, cross-over

Cc1cc(NC(=O)c2ccc(NS(=O)(=O)CCO)cc2N2CCC3(CC2)CC3)nc(N2CCC(F)(F)CC2)n1 [Amorphous Compound A]
IDR ([1]; listed as Amorphous Cmp A): 36.2 ug/min*cm^2
AUCt (Dog cross-over PK study; [7]): 237 ± 68 µM·h
Cmax (Dog cross-over PK study; [7]): 6.9 ± 1.3 µM
Tmax (Dog cross-over PK study; [7]): 6.7 ± 2.3 h

Cc1cc(NC(=O)c2ccc(NS(=O)(=O)CCO)cc2N2CCC3(CC2)CC3)nc(N2CCC(F)(F)CC2)n1 [Anhydrous Compound A Form 3]
DVS weight gain [2]: about 1.5%
Sol (pH), FaSSGF ([3]; pH 1.6 (end of experiment), solubility from 2 hr time point): 99.3 μg/mL
Sol (pH), FaSSIF ([3]; pH 6.5 (end of experiment), solubility from 2 hr time point): 87 μg/mL
Sol (pH), FeSSIF ([3]; pH 5.0 (end of experiment), solubility from 2 hr time point): 352 (5.0)* μg/mL
Sol (pH), Water ([3]; Water, pH 8.0 (end of experiment), solubility from 2 hr time point): 5.4 (8.0)* μg/mL
AUCt (Dog cross-over PK study; [8]): 69 ± 6 µM·h
Cmax (Dog cross-over PK study; [8]): 2.3 ± 0.2 µM
Tmax (Dog cross-over PK study; [9]): 4.7 ± 1.2 h

Cc1cc(NC(=O)c2ccc(NS(=O)(=O)CCO)cc2N2CCC3(CC2)CC3)nc(N2CCC(F)(F)CC2)n1 [Anhydrous Compound A Form 5]
DVS observation in words [2]: rehydrated to the Compound A-Variable Hydrate Form 2

Cc1cc(NC(=O)c2ccc(NS(=O)(=O)CCO)cc2N2CCC3(CC2)CC3)nc(N2CCC(F)(F)CC2)n1 [Compound A, 2-(6-azaspiro[2.5]octan-6-yl)-N-[2-(4,4-difluoropiperidin-1-yl)-6-methylpyrimidin-4-yl]-4-[(2-hydroxyethanesulfonyl)amino]benzamide]
ATPase activity inhibited (MT-ATPase vs basal ATPase) (KIF18A): inhibits MT-ATPase activity and not basal ATPase activity
pKa (pKa of ionizable groups; read-out: weakly acidic pKa): 7.3
pKa (pKa of ionizable groups; read-out: weakly basic pKa): 3.9
solubility [4]: ~18 mg/mL (≈ 31.9 mM)

Cc1cc(NC(=O)c2ccc(NS(=O)(=O)CCO)cc2N2CCC3(CC2)CC3)nc(N2CCC(F)(F)CC2)n1.Cl [Compound A-HCl Form 1]
solubility [4]: ~8 mg/mL
DVS weight gain [2]: less than 0.5%
powder dissolution compared with other forms, in words [3]: faster dissolution than the Compound A-Variable-Hydrate Form 2, or Compound A-Anhydrous Form 3, but a slower dissolution than the Amorphous Compound A
Sol (pH), FaSSGF [3, 10]: 6.3 ± 0.5 μg/mL
Sol (pH), FaSSIF [3, 11]: 62.7 ± 9.0 μg/mL
Sol (pH), FeSSIF [3, 12]: 437.1 ± 16.3 (5.0)^ μg/mL
Sol (pH), Water (first value pair after FeSSIF) [3]: 7.9 μg/mL
Sol (pH), Water (second value pair after FeSSIF) [3]: 13 μg/mL
IDR [1]: 2.14 ug/min*cm^2
exposure compared to Amorphous Compound A, in words (Dog cross-over PK study; dog, PO 10 mg/kg): lower exposure than the Amorphous Compound A form
increase in exposure compared to Compound A-Anhydrous Form 3 (Dog cross-over PK study; dog, PO 10 mg/kg): ~2 fold
AUC(0-t) (Dog cross-over PK study; [13]): 181 ± 79 µM·h
Cmax (Dog cross-over PK study; [13]): 4.7 ± 1.4 µM
Tmax (Dog cross-over PK study; [9]): 6 h
Sol (pH), FaSSIF ([5]; pH 6.5): 104.2 (6.5) μg/mL

Cc1cc(NC(=O)c2ccc(NS(=O)(=O)CCO)cc2N2CCC3(CC2)CC3)nc(N2CCC(F)(F)CC2)n1 [Compound A-MsA Form 1]
DVS weight gain ([2]; listed as Crystalline Compound A-MsA Form 1): about 1.2%
DVS weight gain ([2]; listed as crystalline Compound A-MsA Salt Form 1): less than 1.2%
kinetic solubility, dissolution rate and supersaturation in FaSSIF, in words ([5]; listed as Mesylate (A-MsA or A-MSA) Salt Form 1): better than the HCl Salt Form 1
Sol (pH), FaSSIF ([5]; pH 6.5, listed as Cmp A-MSA Form 1): 133.0 (6.5) μg/mL

Cc1cc(NC(=O)c2ccc(NS(=O)(=O)CCO)cc2N2CCC3(CC2)CC3)nc(N2CCC(F)(F)CC2)n1 [Compound A-Sulfate Form 1]
DVS observation in words ([2]; listed as Crystalline Compound A-Sulfate Form 1): deliquesces at 90% RH

Cc1cc(NC(=O)c2ccc(NS(=O)(=O)CCO)cc2N2CCC3(CC2)CC3)nc(N2CCC(F)(F)CC2)n1 [Compound A-TsA Form 4]
kinetic solubility, dissolution rate and supersaturation in FaSSIF, in words ([5]; listed as Tosylate (A-TsA or A-TSA) Salt Form 4): better than the Mesylate (A-MsA or A-MSA) Salt Form 1
Sol (pH), FaSSIF ([5]; pH 6.5, listed as Cmp A-TSA Form 4): 160.6 (6.5) μg/mL

Cc1cc(NC(=O)c2ccc(NS(=O)(=O)CCO)cc2N2CCC3(CC2)CC3)nc(N2CCC(F)(F)CC2)n1 [Compound A-Variable Hydrate Form 2]
DVS weight gain [2]: about 3.4%
Sol (pH), FaSSGF [3, 10]: 20 μg/mL
Sol (pH), FaSSIF [3, 11]: 10.6 μg/mL
Sol (pH), FeSSIF [3, 12]: 144.5(5.0)^ μg/mL
Sol (pH), Water (first value pair after FeSSIF) [3]: 243 μg/mL
Sol (pH), Water (second value pair after FeSSIF) [3]: 23 μg/mL
IDR ([1]; listed as Cmp A-Variable Hydrate Form 2): 0.42 ug/min*cm^2
solubility, in words [6]: very low solubility
